Consider 14 compounds from US10301263B2, “Anticonvulsant compound” (Royal Holloway and Bedford New College, priority 2014, dated 2019).

Assay [1] deals with T1, AMPA receptor GluA2/3 (Homo sapiens, UniProt P42262+P42263).
T1 construct: expressed in transfected cells; host or cells: Xenopus laevis oocytes injected with cRNA
The assay can be described thus: Electrophysiology of Xenopus laevis oocytes expressing GluA2/3. The note with it: for reduction of AMPA-R generated current in comparison to decanoic acid / reduction of AMPA-R generated current in comparison to the control / reduction of AMPA-R generated current in comparison to 4-BCCA: GluA2/3, 1 mM; for reduction of AMPA-R generated current in comparison to decanoic acid: P<0.01 for #181, #182, #184, P<0.001 for #176, #185; for reduction of AMPA-R generated current in comparison to the control: P<0.05 for #175, #177, P<0.001 for the others; for reduction of AMPA-R generated current in comparison to 4-BCCA: P<0.05 for #181, #184, P<0.01 for #182, P<0.001 for #176, #185; for inhibition of AMPA receptors (subunit GluA2/3) compared to decanoic acid: dose curve vs decanoic acid. It counts as cell-based. As to the method:
(§1) The AMPA receptor (flip isoform) cDNAs inserted in a SP6 polymerase expression vector (pSP6T) were a generous gift from Prof Ralf Schoepfer (NPP, UCL). RNA was transcribed in vitro from Mlu I linearized transcripts using the SP6 Promega RiboMax RNA synthesis kit (Madison, Wis.) according to manufacturer's protocols except for the addition of 0.75 mM capping nucleotide m7G(5′)ppp(5′)G (Promega, Madison, Wis.) and 1.6 mM GTP. cRNA concentrations and integrity were estimated by the intensity of fluorescence bands in RNA denaturating gels. AMPA receptor cRNAs were mixed in a nominal 1:1 ratio and approximately 5 ng was injected per oocyte.
Xenopus laevis oocytes were purchased from the European Xenopus Resource Centre, University of Portsmouth. Stage V to VI oocytes were mechanically dissected and then subjected to gentle shaking for approximately 30-50 min at room temperature with modified Barth's solution (in mM): NaCl 88, KCl 1, NaHCO3 2.4, MgCl2 0.82, CaCl2 0.77, Tris-Cl 15, adjusted to pH 7.4 with NaOH (Sigma-Aldrich, UK), supplemented with 50 IU/ml penicillin and 50 μg/ml streptomycin (Invitrogen, UK) and 50 μg/ml tetracycline (Sigma-Aldrich, UK) and 1% collagenase (type 1A). Healthy oocytes were manually defolliculated and the injections of cRNA for homomeric subunits alone (GluA1), or heteromeric mixtures of two subunits together (GluA2/GluA3) were made using an automated Drummond Nanoinject II injector (Broomall, Pa.). The oocytes were then incubated at 17° C. in modified Barth's solution for at least 48 hours before use in electrophysiological recordings.
Experiments were performed at room temperature (approximately 21-23° C.). An oocyte was placed in a recording chamber (0.3-0.5 ml volume) and perfused with ND96 solution (96 mM NaCl, 2 mM KCl, 1.8 mM CaCl2, 1 mM MgCl2, 5 mM HEPES, with pH adjusted to 7.5). Current and voltage electrodes were filled with 300 mM KCl and made from thin-walled borosilicate glass (GC150TF-7.5, Harvard Apparatus, Kent, UK) using a PC-10 electrode puller (Narashige Instruments, Japan) and had resistances of 0.5-2 MΩ. Oocytes were voltage-clamped to a holding potential of −50 mV or −60 mV using a Turbo TEC-03 amplifier (npi electronics, Tamm, Germany). Compounds were dissolved in distilled water or DMSO and dissolved in bathing solution to achieve their final concentrations during experiments, and were applied under gravity flow during the experiment by using a multi-valve perfusion system (VC3-8C, ALA Scientific Instruments, Farmingdale, N.Y.). The bath solutions were perfused at a rate of 10 ml/min. Recordings were filtered at 20 Hz and digitized at 100 Hz (Digidata 1322A, Molecular Devices, Sunnyvale, Calif.) before recording to computer hard disk. Data acquisition was performed using the Windows PC based programme, WinEDR v3.0.6 (John Dempster, University of Strathclyde, UK).
The data from the electrophysiology experiments were analyzed using GraphPad Prism software (GraphPad software, San Diego Calif., USA) and SPSS (IBM United Kingdom Limited). Statistical analysis was performed using ANOVA with Dunnett's or Tukey post hoc test, pair t-test or un-pair t-test. For the behavior experiment, the nonparametric test, Mann-Whitney test were used. Differences were considered as significant at P<0.05. […]

In assay [2] the target is T2, AMPA receptor GluA1/2 (Homo sapiens, UniProt P42261+P42262).
T2 construct: expressed in transfected cells; host or cells: Xenopus laevis oocytes injected with cRNA
T2 sequence (P42261 19-906 isoform P42261-2 limits assumed): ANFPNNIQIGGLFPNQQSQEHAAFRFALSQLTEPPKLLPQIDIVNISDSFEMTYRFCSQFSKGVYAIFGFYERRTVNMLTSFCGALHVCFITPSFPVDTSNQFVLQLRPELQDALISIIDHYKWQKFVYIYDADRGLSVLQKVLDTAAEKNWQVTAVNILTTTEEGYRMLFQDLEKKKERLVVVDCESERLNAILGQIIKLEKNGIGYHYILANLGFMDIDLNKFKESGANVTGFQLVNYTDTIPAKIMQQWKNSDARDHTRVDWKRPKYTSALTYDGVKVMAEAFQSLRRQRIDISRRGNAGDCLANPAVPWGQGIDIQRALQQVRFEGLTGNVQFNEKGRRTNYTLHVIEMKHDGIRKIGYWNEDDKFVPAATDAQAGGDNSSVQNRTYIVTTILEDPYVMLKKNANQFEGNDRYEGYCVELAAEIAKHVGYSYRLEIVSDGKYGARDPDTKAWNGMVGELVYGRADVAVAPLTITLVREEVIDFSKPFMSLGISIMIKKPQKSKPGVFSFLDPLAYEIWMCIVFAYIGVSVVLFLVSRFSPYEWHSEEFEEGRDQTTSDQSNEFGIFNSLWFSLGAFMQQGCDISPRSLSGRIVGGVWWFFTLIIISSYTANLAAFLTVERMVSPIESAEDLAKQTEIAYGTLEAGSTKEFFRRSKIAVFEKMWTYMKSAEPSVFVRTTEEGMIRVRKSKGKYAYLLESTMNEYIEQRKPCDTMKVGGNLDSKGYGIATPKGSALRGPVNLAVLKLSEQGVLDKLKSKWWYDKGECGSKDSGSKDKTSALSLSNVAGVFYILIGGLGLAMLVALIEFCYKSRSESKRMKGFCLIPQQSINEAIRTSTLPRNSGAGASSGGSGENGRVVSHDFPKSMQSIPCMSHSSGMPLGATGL
T2 sequence (P42262 22-883 isoform P42262-2 limits assumed): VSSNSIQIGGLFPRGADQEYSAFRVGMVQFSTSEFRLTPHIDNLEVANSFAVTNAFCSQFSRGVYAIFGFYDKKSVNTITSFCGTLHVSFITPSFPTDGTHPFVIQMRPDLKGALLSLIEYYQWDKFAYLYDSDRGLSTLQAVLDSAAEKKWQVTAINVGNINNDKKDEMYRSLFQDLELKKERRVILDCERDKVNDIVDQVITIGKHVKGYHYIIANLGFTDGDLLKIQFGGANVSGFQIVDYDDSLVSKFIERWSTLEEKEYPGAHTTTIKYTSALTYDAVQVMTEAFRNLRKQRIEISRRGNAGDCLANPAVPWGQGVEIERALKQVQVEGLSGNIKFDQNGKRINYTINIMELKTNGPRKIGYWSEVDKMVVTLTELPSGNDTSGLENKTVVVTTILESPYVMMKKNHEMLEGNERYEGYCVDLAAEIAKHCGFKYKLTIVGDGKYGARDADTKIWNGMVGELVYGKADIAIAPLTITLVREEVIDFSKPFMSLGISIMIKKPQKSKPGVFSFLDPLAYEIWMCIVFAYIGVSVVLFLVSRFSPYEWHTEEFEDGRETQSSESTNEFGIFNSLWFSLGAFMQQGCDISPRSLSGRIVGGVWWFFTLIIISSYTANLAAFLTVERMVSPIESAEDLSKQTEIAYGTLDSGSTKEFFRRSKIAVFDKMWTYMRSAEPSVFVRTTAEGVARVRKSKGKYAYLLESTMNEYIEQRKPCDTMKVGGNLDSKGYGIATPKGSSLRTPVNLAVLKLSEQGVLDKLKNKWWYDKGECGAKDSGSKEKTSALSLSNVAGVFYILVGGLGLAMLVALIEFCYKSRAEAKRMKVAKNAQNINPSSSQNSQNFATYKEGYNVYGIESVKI
The assay can be described thus: Electrophysiology of Xenopus laevis oocytes expressing GluA1/2. The note with it: IC50 comparison, FIG. 2C. The assay is classed as cell-based. How it is done:
as §1
Xenopus laevis oocytes were purchased from the European Xenopus Resource Centre, University of Portsmouth. Stage V to VI oocytes were mechanically dissected and then subjected to gentle shaking for approximately 30-50 min at room temperature with modified Barth's solution (in mM): NaCl 88, KCl 1, NaHCO3 2.4, MgCl2 0.82, CaCl2 0.77, Tris-Cl 15, adjusted to pH 7.4 with NaOH (Sigma-Aldrich, UK), supplemented with 50 IU/ml penicillin and 50 μg/ml streptomycin (Invitrogen, UK) and 50 μg/ml tetracycline (Sigma-Aldrich, UK) and 1% collagenase (type 1A). […]
The data from the electrophysiology experiments were analyzed using GraphPad Prism software (GraphPad software, San Diego Calif., USA) and SPSS (IBM United Kingdom Limited). […]

T1 sequence (P42262 22-883 isoform P42262-2 limits assumed): as above
T1 sequence (P42263 29-894 isoform P42263-2 limits assumed): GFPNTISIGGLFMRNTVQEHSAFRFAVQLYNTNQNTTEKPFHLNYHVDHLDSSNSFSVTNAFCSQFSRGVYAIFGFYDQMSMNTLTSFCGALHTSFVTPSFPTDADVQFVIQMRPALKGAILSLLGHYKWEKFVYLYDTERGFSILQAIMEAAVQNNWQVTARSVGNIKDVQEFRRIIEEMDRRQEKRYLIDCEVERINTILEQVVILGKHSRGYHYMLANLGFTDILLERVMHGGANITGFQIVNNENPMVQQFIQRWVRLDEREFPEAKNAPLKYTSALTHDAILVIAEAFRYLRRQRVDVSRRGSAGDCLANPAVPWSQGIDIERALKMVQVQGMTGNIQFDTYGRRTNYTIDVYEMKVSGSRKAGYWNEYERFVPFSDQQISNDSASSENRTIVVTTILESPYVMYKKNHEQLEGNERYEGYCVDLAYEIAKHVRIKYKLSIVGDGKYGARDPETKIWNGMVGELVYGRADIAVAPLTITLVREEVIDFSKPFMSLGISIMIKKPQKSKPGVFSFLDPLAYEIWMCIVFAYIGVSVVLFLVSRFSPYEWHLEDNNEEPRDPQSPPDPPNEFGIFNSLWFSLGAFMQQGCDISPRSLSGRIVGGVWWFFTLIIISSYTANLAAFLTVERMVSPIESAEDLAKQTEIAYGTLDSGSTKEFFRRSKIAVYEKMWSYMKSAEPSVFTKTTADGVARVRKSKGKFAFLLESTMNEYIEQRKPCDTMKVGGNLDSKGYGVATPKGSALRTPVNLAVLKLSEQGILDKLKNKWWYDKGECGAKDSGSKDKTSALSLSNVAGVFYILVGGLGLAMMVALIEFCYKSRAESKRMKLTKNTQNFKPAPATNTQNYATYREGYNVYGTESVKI

Regarding `CCC(C)CC1CCC(C(=O)O)CC1` (stereo not shown) [compound 184, 4-(2-methylbutyl)cyclohexanecarboxylic acid], in assay [1], the “reduction of AMPA-R generated current in comparison to decanoic acid” value (“reduction … to decanoic acid” below) is recorded as “significant reduction”, the “reduction of AMPA-R generated current in comparison to the control” value (from here on “reduction … to the control”) is reported as “significant reduction” and the “reduction of AMPA-R generated current in comparison to 4-BCCA” value (“reduction … to 4-BCCA” below) was “significant reduction”.
`CCC(C)CCC1CCC(CC(=O)O)CC1` (stereo not shown) [compound 176, [4-(3-methylpentyl)cyclohexyl]acetic acid]: in assay [1], the “reduction … to decanoic acid” value was “significant reduction”, the “reduction … to the control” value is “significant reduction” and the “reduction … to 4-BCCA” value is given as “significant reduction”.
Turning to `CCCCCC1CCC(CC(=O)O)CC1` (racemic) [Compound 4-PCEA, 2-(4-pentylcyclohexyl)ethanoic acid], in assay [1], the “inhibition of AMPA receptors (subunit GluA2/3) compared to decanoic acid” value is recorded as “more potent inhibition”. In addition, the “inhibitory effect on AMPA receptors consisting of GluA1/2 subunits compared to decanoic acid” value in assay [2] is “enhanced inhibitory effect”.
In the case of `CCCOC1CCC(C(=O)O)CC1` (stereo not shown) [compound 180, 4-propoxycyclohexanecarboxylic acid], the “reduction … to the control” value in assay [1] is “significant reduction”.
Still for that read-out and setting: under `CCOCC1CCC(C(=O)O)CC1` (stereo not shown) [compound 177, 4-(ethoxymethyl)cyclohexancarboxylic acid] stands “significant reduction”; under `CC/C=C/C1CCC(C(=O)O)CC1` (stereo not shown) [compound 174, 4-[(1E)-but-1-en-1-yl]cyclohexanecarboxylic acid], “significant reduction”.
On to `CC(C)CCC1CCC(C(=O)O)CC1` (stereo not shown) [compound 181, 4-(3-methylbutyl)cyclohexanecarboxylic acid], for which, in assay [1], the “reduction … to decanoic acid” value is “significant reduction”, the “reduction … to the control” value is listed as “significant reduction” and the “reduction … to 4-BCCA” value was “significant reduction”.
Take `CCNCC1CCC(CC(=O)O)CC1` (stereo not shown) [compound 179, {4-[(ethylamino)methyl]cyclohexyl}acetic acid]: in assay [1], the “reduction … to the control” value is “significant reduction”.
As to `CCCCC=C1CCC(CC(=O)O)CC1` (stereo not shown) [compound 182, (4-pentylidenecyclohexyl)acetic acid], in assay [1], the “reduction … to decanoic acid” value is “significant reduction”, the “reduction … to the control” value is reported as “significant reduction” and the “reduction … to 4-BCCA” value is “significant reduction”.
Take `CCCCCc1ccc(CC(=O)O)cc1` [Compound 4-PPEA, 4-pentylphenylethanoic acid]: the “inhibition of AMPA receptors (subunit GluA2/3) compared to decanoic acid” value in assay [1] was “more potent inhibition”.
Take `CCCC(C)CC1CCC(CC(=O)O)CC1` (stereo not shown) [compound 185, [4-(2-methylpentyl)cyclohexyl]acetic acid]: in assay [1], the “reduction … to decanoic acid” value is reported as “significant reduction”, the “reduction … to the control” value is “significant reduction” and the “reduction … to 4-BCCA” value is “significant reduction”.
For the compound `CCCOCC1CCC(CC(=O)O)CC1` (stereo not shown) [compound 175, 4-(propoxymethyl)cyclohexyl acetic acid], the “reduction … to the control” value in assay [1] is “significant reduction”.
Turning to `CCCCC1CCC(C(=O)O)NC1` (stereo not shown) [compound 178, 5-butylpiperidine-2-carboxylic acid], the “reduction … to the control” value in assay [1] is recorded as “significant reduction”.
As for `CC(C)CCCC1CCC(CC(=O)O)CC1` (stereo not shown) [compound 172, [4-(4-methylpentyl)cyclohexyl]acetic acid], the “reduction … to the control” value in assay [1] is listed as “significant reduction”.
